Active and inactive are the calls of the source.
What was measured:
[1] = HeLa cell viability loss – plate reader, dry powder, cytotoxicity control, dose response (AID 651946); format: functional, cell-based
[2] = OVCAR-3 cell viability loss – plate reader, dry powder samples, PAX8 inhibitor project, dose response (AID 743044); format: functional, cell-based
[3] = CMV-driven luciferase expression suppression in HEK293 – cell-based, luminescence, dry powder, counter-screen for Pax8 inhibitor project, dose response (AID 743020); format: functional
Paired box protein Pax-8 = Paired box protein Pax-8 (Homo sapiens, UniProt Q06710); experiment: PAX8 transcriptional activity inhibition in RMG-I – RMG-I cells, luciferase, cherry-pick, dose response (AID 687027); format: functional, cell-based;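 also: luciferase reporter driven by Pax8 target thyroperoxidase promoter measured by SteadyGlo luminescence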
[4] = OVCAR8 cell viability loss – plate reader, dry powder samples, PAX8 project, dose response (AID 743197); format: functional, cell-based; conditions: OVCAR-8
cells [5] = conditions: A549
Nonstructural protein 1 = Nonstructural protein 1 (Influenza A virus, UniProt Q194T2); format: functional, Influenza A virus (A/California/07/2009(H1N1))
[6] = molecular target: Photoreceptor-specific nuclear receptor (Homo sapiens, UniProt Q9Y5X4); format: functional, cell-based;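 also: CHO-S cells with Gal4-NCOR and VP16-NR2E3 two-hybrid luciferase reporter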
[7] = molecular target: T1, Rac GTPase-activating protein 1 (Homo sapiens, UniProt Q9H0H5); experiment: blockers of MgcRacGAP-driven Rac1 GTP hydrolysis – biochemical, ADP Hunter fluorescence, primary and confirmatory, confirmation (AID 624330); format: functional
T1 sequence (Q9H0H5 whole entry): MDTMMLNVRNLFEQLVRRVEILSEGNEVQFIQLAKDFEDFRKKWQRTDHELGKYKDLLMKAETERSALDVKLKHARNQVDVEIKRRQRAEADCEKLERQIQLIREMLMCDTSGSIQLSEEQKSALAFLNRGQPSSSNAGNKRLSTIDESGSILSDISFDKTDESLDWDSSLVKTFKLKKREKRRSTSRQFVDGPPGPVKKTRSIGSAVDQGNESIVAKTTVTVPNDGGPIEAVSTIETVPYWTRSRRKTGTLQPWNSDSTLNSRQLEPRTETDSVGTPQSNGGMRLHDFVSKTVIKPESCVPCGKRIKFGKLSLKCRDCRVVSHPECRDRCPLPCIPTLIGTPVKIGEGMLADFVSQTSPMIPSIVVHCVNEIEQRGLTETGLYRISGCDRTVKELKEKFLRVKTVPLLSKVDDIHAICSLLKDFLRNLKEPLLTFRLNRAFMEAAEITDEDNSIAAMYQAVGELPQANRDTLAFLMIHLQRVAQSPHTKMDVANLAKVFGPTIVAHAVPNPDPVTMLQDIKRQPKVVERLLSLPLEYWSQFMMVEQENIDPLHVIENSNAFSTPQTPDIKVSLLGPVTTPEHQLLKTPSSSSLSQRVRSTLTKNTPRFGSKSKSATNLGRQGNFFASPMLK

[8] = HGIII-sPLA2 enzyme inhibition potency – biochemical, QFRET, IC50, dose response (AID 743457);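 also: green fluorescence rise as the enzyme cleaves BODIPY PC-A2 in liposomes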
[9] = molecular target: T2, DNA repair protein RAD52 homolog (Homo sapiens, UniProt P43351); format: functional, biochemical
T2 sequence (P43351 whole entry): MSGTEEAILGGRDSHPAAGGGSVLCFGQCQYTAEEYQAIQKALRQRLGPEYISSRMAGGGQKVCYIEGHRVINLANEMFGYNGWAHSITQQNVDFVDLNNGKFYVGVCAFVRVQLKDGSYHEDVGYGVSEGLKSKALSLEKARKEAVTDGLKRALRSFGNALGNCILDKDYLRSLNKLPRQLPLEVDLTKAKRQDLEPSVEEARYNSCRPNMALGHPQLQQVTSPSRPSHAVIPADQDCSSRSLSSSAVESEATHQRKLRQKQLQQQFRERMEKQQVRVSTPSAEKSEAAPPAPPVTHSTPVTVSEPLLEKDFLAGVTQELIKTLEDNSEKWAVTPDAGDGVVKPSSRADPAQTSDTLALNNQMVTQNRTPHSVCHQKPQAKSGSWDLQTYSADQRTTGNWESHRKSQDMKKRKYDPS

[10] = viability loss in HeLa cells – cytotoxicity control for MgcRacGAP inhibitor project, dose response (AID 624300); format: functional
[11] = A2780 cell killing – plate reader, dry powder samples, cytotoxicity control, dose response (AID 743046); format: functional, cell-based
[12] = viability of BHK-21 cells – cell-based, secondary screen, cytotoxicity control for flavivirus guanylyltransferase probe project (AID 624078); format: functional
[13] = molecular target: Histone-lysine N-methyltransferase NSD2 (Homo sapiens, UniProt O96028); format: biochemical
[14] = Late stage assay provider results from the probe development effort to identify inhibitors of the Plasmodium falciparum M18 Aspartyl Aminopeptidase (M18AAP): radiolabel-based cell-based dose response assay to identify compounds that inhibit P. falciparum growth in RBCs, Set 2..; format: functional
[15] = molecular target: Protein disulfide-isomerase (Homo sapiens, UniProt P07237); experiment: inhibition of PDI-mediated insulin reduction – biochemical, turbidity, dry powder samples, set 2, confirmation (AID 652146)
[16] = general mammalian cell viability loss – inhibitor set, cherry-pick, set 2, cytotoxicity control for miR-122 modulator project, dose response (AID 720697); format: functional, cell-based
[17] = molecular target: T3, Trace amine-associated receptor 1 (Homo sapiens, UniProt Q96RJ0); experiment: Fluorescence-based cell-based high throughput dose response assay to identify antagonists of the human trace amine associated receptor 1 (TAAR1).; format: functional
T3 sequence (Q96RJ0 whole entry): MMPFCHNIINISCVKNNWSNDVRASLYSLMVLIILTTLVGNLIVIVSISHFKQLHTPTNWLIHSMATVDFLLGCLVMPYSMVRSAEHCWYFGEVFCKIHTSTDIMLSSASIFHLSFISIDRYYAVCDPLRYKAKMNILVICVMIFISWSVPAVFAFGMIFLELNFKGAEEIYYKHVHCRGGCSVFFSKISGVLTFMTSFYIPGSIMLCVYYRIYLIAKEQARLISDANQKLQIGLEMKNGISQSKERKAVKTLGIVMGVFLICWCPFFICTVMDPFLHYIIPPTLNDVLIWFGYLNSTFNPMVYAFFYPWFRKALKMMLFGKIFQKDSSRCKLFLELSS

[18] = Counterscreen for antagonists of the human trace amine associated receptor 1 (hTAAR1): Fluorescence-based cell-based high throughput dose response assay to identify nonselective Ga16 antagonists.; format: functional
[19] = molecular target: T3, Trace amine-associated receptor 1; experiment: Counterscreen for antagonists of the human trace amine associated receptor 1 (hTAAR1): Fluorescence-based cell-based high throughput dose response assay to identify TAAR1 Agonists.; format: functional
[20] = Counterscreen for […] of the human trace amine associated receptor 1 (TAAR1): Fluorescence-based cell-based high throughput dose response assay to identify nonselective Ga16 agonists.; format: functional
[21] = T. cruzi growth inhibition in host cells, dose response, cell-based, plate reader, dry powder, set 2 (AID 652275); format: functional
[22] = COV434 cell viability loss – plate reader, dry powder, SA7, cytotoxicity control for PAX8 inhibitor project, dose response (AID 743145); format: functional, cell-based
[23] = PAX8-dependent cell viability loss – plate reader, dry powder, dose response (AID 743049); format: functional, cell-based
[24] = IGROV1 cell killing – plate reader, dry powder samples, PAX8 inhibitor project, dose response (AID 743043); format: functional, cell-based; conditions: IGROV-1
[25] = OV-90 cell viability loss – plate reader, dry powder, SA8, PAX8 inhibitor project, dose response (AID 743149); format: functional, cell-based
cells [26] = experiment: cells
[27] = non-specific 3'UTR reporter inhibition in Clone20-Shn3RL – cell-based, Renilla luciferase, cherry-picked, counter-screen for Shn3 inhibitor project, dose response (AID 624133); format: functional
[28] = loss of viability in HepG2 cells – cell-based, CellTiter-Glo, cherry-picked, cytotoxicity control for Shn3 inhibitor project, dose response (AID 624134); format: functional
BJ [29] = experiment: cells; format: functional, cell-based; conditions: Homo sapiens
BJ [30] = experiment: BJ-TERT fibroblast viability loss – cell-based, RAS-independent, luminescence, dose response (AID 1933); format: functional; conditions: Homo sapiens
[31] = reduction of Shn3 3'UTR-driven luciferase in osteoblasts – cell-based, Clone20 osteoblasts, firefly luciferase, cherry-picked, dose response (AID 624132); format: functional;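 also: firefly luciferase luminescence from reporter carrying the Shn3 3'UTR in osteoblasts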
[32] = molecular target: Disintegrin and metalloproteinase domain-containing protein 17 (Homo sapiens, UniProt P78536); experiment: inhibition of ADAM17 substrate cleavage – biochemical, quenched FRET substrate, counter-screen for ADAM10 exosite inhibitor project, dose response (AID 743253)
[33] = potency of ADAM10 substrate cleavage blockers – biochemical, QFRET, dose response (AID 743254);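 also: ADAM10 enzyme with the DM2 quenched FRET peptide as substrate; EDANS fluorescence gain as the protease cuts the substrate; inhibitor potency against ADAM10 proteolytic activity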
BJ [34] = experiment: BJ-TERT-LT-ST fibroblast viability loss – cell-based, RAS-independent, luminescence, dose response (AID 1935); format: functional; conditions: Homo sapiens;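 also: BJ fibroblasts immortalized with TERT plus LT and ST oncogenes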
[35] = DRD fibroblast viability loss – cell-based, non-viral oncogenic, luminescence, dose response (AID 1934); format: functional; conditions: Homo sapiens
[36] = inhibition of bursicon-driven LGR2 cAMP signaling – cell-based, HEK293, CRE-luciferase reporter, cherry pick, dose response (AID 743342); format: functional
[37] = A549 cell cytotoxicity, dose response, cytotoxicity control, plate reader, cherry-pick, antagonist series (AID 743412); format: functional, cell-based
[38] = inhibitors of TRPM1-promoter reporter in SK-MEL-5 – cell-based, luciferase, dry powder, set 8, MITF inhibitor project, dose response (AID 624430); format: functional
[39] = MITF Orthogonal Assay: SK-MEL-5 CTG Assay Measured in Cell-Based System Using Plate Reader - 2084-02_Inhibitor_Dose_DryPowder_Activity_Set7.; format: functional
[40] = MITF: Counter assay: A375 proliferation Measured in Cell-Based System Using Plate Reader - 2084-03_Inhibitor_Dose_DryPowder_Activity_Set8.; format: functional; conditions: A-375
[41] = toxicity toward immortalized ovarian surface epithelium – cell-based, plate reader, dry powder samples, cytotoxicity control for PAX8 inhibitor project, dose response (AID 743045); format: functional
[42] = general cell-killing toxicity readout – plate reader, dry powder samples, cytotoxicity control for PAX8 inhibitor project, dose response (AID 743021); format: functional, cell-based

Chain of Paired box protein Pax-8 (Q06710 whole entry): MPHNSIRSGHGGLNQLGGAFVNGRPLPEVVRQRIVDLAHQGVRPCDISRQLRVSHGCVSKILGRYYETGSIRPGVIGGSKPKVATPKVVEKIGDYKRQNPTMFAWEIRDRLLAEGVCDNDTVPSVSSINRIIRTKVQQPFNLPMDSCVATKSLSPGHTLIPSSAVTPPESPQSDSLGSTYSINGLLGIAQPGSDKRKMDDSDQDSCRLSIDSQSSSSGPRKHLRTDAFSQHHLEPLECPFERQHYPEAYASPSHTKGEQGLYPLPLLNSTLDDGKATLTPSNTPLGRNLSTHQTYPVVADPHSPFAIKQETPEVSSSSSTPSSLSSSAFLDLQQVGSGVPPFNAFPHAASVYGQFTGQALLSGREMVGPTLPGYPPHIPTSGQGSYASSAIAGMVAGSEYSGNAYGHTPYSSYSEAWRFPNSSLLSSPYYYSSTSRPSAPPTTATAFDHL
Chain of Photoreceptor-specific nuclear receptor (Q9Y5X4 whole entry, the tested form may be a part): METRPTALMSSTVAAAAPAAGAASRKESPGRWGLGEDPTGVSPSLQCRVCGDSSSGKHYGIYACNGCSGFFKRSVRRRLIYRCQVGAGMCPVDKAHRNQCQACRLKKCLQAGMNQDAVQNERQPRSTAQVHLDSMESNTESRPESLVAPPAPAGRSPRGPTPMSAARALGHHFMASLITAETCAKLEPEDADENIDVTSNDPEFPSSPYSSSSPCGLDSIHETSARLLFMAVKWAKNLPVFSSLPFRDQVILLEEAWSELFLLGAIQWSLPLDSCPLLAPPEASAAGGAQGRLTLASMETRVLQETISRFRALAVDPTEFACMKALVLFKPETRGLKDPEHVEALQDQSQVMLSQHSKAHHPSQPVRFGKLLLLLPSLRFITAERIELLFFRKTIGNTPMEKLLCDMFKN
Chain of Disintegrin and metalloproteinase domain-containing protein 17 (P78536 whole entry, the tested form may be a part): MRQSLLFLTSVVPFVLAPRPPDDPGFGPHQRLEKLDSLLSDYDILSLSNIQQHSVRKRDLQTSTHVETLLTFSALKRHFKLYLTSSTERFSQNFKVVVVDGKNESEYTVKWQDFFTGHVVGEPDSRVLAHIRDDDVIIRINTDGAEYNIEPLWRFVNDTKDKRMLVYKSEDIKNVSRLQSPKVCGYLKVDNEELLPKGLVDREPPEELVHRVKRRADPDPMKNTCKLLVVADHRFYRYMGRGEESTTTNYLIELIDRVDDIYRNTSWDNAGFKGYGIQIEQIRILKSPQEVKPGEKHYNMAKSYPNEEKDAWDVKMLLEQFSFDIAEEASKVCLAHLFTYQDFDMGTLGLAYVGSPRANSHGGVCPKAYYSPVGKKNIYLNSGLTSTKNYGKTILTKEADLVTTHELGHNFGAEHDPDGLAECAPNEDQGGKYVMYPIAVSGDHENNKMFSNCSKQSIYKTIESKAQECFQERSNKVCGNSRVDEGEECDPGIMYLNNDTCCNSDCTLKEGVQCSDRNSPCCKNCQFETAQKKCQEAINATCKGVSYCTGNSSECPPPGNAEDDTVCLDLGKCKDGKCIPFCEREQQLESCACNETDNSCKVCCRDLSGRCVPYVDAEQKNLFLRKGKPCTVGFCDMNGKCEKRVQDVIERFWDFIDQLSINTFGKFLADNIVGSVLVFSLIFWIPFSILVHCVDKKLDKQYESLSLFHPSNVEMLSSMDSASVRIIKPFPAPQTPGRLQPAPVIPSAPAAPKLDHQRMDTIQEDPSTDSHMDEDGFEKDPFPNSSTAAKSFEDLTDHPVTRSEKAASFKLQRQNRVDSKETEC
Chain of Histone-lysine N-methyltransferase NSD2 (O96028 whole entry): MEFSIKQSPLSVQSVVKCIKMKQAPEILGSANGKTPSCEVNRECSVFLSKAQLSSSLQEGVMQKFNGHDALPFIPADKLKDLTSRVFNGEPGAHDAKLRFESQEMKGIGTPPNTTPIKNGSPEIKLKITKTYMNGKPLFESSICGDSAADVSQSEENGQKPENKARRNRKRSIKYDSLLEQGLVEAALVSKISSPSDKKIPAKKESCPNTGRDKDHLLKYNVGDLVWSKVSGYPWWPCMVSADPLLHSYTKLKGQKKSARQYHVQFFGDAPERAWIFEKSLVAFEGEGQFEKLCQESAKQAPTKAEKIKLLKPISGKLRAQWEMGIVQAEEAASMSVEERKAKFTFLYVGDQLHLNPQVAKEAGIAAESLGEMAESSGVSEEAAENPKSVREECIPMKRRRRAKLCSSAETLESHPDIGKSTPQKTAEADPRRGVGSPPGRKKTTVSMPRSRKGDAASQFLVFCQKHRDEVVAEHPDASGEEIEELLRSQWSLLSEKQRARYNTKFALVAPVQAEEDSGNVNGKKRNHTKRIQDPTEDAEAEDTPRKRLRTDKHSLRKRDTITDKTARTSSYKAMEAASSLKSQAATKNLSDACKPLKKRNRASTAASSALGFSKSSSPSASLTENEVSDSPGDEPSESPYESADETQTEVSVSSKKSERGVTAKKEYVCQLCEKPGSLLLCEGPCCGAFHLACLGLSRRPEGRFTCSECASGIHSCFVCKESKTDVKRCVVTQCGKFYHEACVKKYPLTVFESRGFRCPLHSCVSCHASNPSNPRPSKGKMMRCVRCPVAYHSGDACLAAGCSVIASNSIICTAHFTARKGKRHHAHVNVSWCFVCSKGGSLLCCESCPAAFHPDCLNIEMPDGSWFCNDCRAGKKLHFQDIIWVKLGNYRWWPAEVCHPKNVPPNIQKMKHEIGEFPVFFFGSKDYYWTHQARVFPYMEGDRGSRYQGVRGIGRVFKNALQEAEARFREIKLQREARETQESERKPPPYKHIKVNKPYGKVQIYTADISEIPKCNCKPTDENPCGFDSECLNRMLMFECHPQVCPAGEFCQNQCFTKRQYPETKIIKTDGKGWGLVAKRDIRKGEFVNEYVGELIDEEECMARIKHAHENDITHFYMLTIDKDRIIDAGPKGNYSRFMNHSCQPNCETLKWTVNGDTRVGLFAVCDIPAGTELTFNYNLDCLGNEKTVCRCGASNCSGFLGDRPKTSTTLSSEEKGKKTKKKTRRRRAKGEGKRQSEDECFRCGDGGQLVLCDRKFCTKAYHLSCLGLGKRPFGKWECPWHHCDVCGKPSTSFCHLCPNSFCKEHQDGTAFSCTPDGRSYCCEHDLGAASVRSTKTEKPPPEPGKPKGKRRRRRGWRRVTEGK
Chain of Nonstructural protein 1 (Q194T2 whole entry, the tested form may be a part): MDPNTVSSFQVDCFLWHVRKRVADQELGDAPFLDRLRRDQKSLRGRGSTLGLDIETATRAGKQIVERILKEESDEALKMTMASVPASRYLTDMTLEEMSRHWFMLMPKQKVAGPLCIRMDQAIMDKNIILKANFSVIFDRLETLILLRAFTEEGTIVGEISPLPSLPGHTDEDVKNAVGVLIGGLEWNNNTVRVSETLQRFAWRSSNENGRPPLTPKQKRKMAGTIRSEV
Chain of Protein disulfide-isomerase (P07237 whole entry): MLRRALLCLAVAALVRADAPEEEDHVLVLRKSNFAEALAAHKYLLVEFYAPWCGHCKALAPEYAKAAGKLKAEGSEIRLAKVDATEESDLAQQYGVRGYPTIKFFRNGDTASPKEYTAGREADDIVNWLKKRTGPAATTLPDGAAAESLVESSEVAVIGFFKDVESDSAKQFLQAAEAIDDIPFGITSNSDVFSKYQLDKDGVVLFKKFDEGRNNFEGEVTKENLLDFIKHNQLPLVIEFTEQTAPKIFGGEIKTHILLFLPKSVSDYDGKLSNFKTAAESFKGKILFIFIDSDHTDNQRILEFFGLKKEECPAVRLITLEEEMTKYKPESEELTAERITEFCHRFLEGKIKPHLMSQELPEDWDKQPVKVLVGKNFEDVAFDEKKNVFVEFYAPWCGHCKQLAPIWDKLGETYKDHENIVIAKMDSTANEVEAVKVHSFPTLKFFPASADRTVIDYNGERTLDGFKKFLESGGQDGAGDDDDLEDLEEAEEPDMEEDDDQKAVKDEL

N#Cc1cccc(CSc2nnc(-c3ccccc3)o2)c1
AC50 [1]: > 52 µM (inactive)

C[C@H]1CN([C@@H](C)CO)S(=O)(=O)c2ccc(C#CC3CCCC3)cc2O[C@@H]1CN(C)Cc1cccnc1
AC50 [2]: 37.1 µM (active)
AC50 [3]: 39.4 µM (active)
AC50 (Paired box protein Pax-8): 14.4 µM (active)
AC50 [4]: > 70 µM (inactive)

CC(=O)c1cccc(-c2ccnc3c2CC(C(=O)NCc2ccc(F)c(F)c2)O3)c1 (centres undefined)
AC50 (cells [5]): 3.92 µM (active)

CN(C)c1ccc(/C=C/c2cc[n+](C)c3ccccc23)cc1
IC50 (Nonstructural protein 1): 10.6 µM (active)
IC50 [6]: 7.07 µM (active)
IC50 [7]: 38.5 µM (active)
IC50 [8]: 30.1 µM (inactive)
AC50 [9]: 1.23 µM (active)
CC50 [10]: 54.1 µM (active)

C[C@H]1CCCCO[C@H](CN(C)S(=O)(=O)c2ccc(Cl)cc2)[C@@H](C)CN([C@@H](C)CO)C(=O)c2cc(NS(=O)(=O)c3ccc(F)cc3)ccc2O1
AC50 [11]: 58.4 µM (active)
AC50 (Paired box protein Pax-8): 8.27 µM (active)

O=S(=O)(Nc1cc(Cl)c(O)c2ccccc12)c1ccc(F)cc1
CC50 [12]: 12.5 µM (active)

CCN=C(S)N(CCCN(CC)CC)Cc1cc2cc3c(cc2nc1O)OCO3
AC50 [13]: 15.7 µM (active)

Oc1ccc(CCNc2c3c(nc4ccccc24)CCCC3)cc1O
IC50 [14]: 3.6 µM (active)

CCOC(=O)C1(CCOc2ccccc2)CCN(Cc2ccc3[nH]c(=O)oc3c2)CC1
AC50 [15]: > 30 µM (inactive)

CC1CCN(CCc2nc3cc(NC(=O)Nc4ccccc4)ccc3n2C)CC1
AC50 [16]: 2.74 µM (active)

O=C(CCSCc1cccc(F)c1)NCCc1ccccc1
IC50 [17]: 7.43 µM (active)
IC50 [18]: > 29.9 µM (inactive)
EC50 [19]: > 29.9 µM (inactive)
EC50 [20]: > 29.9 µM (inactive)

C[C@@H](CO)N1CC[C@H](CNCc2ccc(Oc3ccccc3)cc2)Oc2c(NC(=O)c3ccncc3)cccc2C1=O
AC50 [21]: 0.0179 µM (active)

N#C[C@H]1N[C@H](CO)[C@@H]1c1ccc(C#Cc2ccccc2F)cc1
AC50 [22]: > 70 µM (inactive)
AC50 [2]: 49.8 µM (active)
AC50 [23]: 30.1 µM (active)
AC50 [24]: 45.2 µM (active)
AC50 [25]: > 70 µM (inactive)

Cc1cccn2c(=O)c(/C=C(\C#N)C(=O)NC3CCS(=O)(=O)C3)c(N3CCC(C(N)=O)CC3)nc12 (centres undefined)
AC50 (cells [26]): 4.38 µM (active)

COc1ccc(C)c2sc(N(CCCN(C)C)C(=O)c3ccc(S(=O)(=O)N4CCc5ccccc5C4)cc3)nc12
AC50 [27]: 5.51 µM (active)
AC50 [28]: 2.98 µM (active)
EC50 (BJ [29]): 5.65 µM (active)
EC50 (BJ [30]): 1.48 µM (inconclusive)
AC50 [31]: 4.4 µM (active)
IC50 [32]: > 69.5 µM (inactive)
IC50 [33]: > 69.5 µM (inactive)
EC50 (BJ [34]): 2.13 µM (inconclusive)
EC50 [35]: 4.25 µM (active)

C[C@H](CO)N1C[C@H](C)[C@H](CN(C)C(=O)Nc2ccc3c(c2)OCO3)OCCCC[C@H](C)Oc2ccc(NC(=O)C3CCCCC3)cc2C1=O
AC50 [36]: 2.21 µM (active)
AC50 [37]: 41 µM (active)

Cc1cccc(NC2=CC(=O)c3ccccc3C2=O)c1
AC50 [38]: 18.9 µM (active)
AC50 [39]: 0.66 µM (active)
AC50 [40]: > 70 µM (inactive)

Cc1ccc(S(=O)(=O)Nc2ccc3c(c2)C(=O)N([C@H](C)CO)C[C@H](C)[C@H](CN(C)Cc2ccc(C(F)(F)F)cc2)OCCCC[C@H](C)O3)cc1
AC50 [41]: 46.2 µM (active)
AC50 [2]: 19.4 µM (active)
AC50 (Paired box protein Pax-8): 9.98 µM (active)
AC50 [42]: 41.7 µM (active)
AC50 [4]: 24.7 µM (active)

From ChEMBL document CHEMBL1201862, “PubChem BioAssay data set” (2004)
